{"source": "patent US20030118525A1", "about": "“Treatment of uv induced immunosuppression” (priority 2000, published 2003)", "key": {"[1]": {"system": "collagen in human fibroblasts", "assay": "Collagen cross-linking by UV (solar) irradiation in human fibroblasts in vitro", "assay_type": "cell-based", "details": "1-2 μM", "description": "(§1) 1.4 Collagen cross-linking by UV (solar) irradiation was achieved as described in WO 90/06102."}, "[2]": {"system": "collagen in mouse skin", "assay": "Collagen cross-linking by UV (solar) irradiation in mouse skin", "details": "1-2 μM", "description": "as §1"}, "[3]": {"system": "mice irradiated with simulated solar UV radiation (SSUV)", "assay": "Contact hypersensitivity to oxazolone after SSUV irradiation (ear swelling)", "assay_type": "in vivo", "details": "0.1% cream; in words", "procedure": "(§2) 1.1 Solar simulated radiation (SSUV) was produced from a filtered fluorescent tube source, and was administered at the rate of 1 MED daily for 3Days.\n1.3 Contact hypersensitivity was induced by application of 100 μl 0.2% w/v oxazolone in ethanol, to the abdominal skin of groups of 6 mice. The mice were challenged by application of 5 μl of fresh oxazolone/ethanol to each surface of both pinnae one week later, and the ear swelling response was measured 24 h later.\n(§3) Carnosine incorporated into cosmetic creams at 0.1% and 1.00%, was compared with a cream containing 0.1% acetylcarnosine and a control cream containing neither carnosine nor acylcarnosine. The creams were applied daily (100 μl per mouse) immediately following irradiation with 1 MED of simulated solar UV radiation on 3 consecutive days only."}, "[4]": {"system": "collagen in mouse fibroblasts", "assay": "Collagen cross-linking by UV (solar) irradiation in mouse fibroblasts in vitro", "assay_type": "cell-based", "details": "1-2 μM", "description": "as §1"}, "[5]": {"system": "mice irradiated with simulated solar UV radiation (SSUV)", "assay": "Erythema/oedema as mid-dorsal skinfold thickness after simulated solar UV radiation", "assay_type": "in vivo", "procedure": "as §2\n1.2 Erythema was measured as a mid-dorsal skinfold thickness, which comprises mostly the oedema component of erythema.\nas §3\nThe sunburn (erythema) response was measured in mice by the oedema component at the peak of the erythema (48 h after the first UV exposure)."}}, "data": [{"smiles": "CC(=O)NCCC(=O)N[C@@H](Cc1cnc[nH]1)C(=O)O", "note": "[acetylcarnosine, N-acetylcarnosine]", "values": [{"measurement": "inhibition of cross linking of collagen by UV (solar) irradiation", "setting": "[1]", "value": "completely inhibited"}, {"measurement": "inhibition of cross linking of collagen by UV (solar) irradiation", "setting": "[2]", "value": "completely inhibited"}, {"measurement": "protection against suppression of contact hypersensitivity resulting from UV irradiation", "setting": "[3]", "value": "totally prevented"}, {"measurement": "inhibition of cross linking of collagen by UV (solar) irradiation", "setting": "[4]", "value": "completely inhibited"}, {"measurement": "% increase in skinfold thickness", "setting": "[5]; 0.1% cream, 100 μl per mouse daily immediately after 1 MED SSUV on 3 days, measured at 48 h, base + SSUV 30.2", "value": 11.3, "unit": "%"}, {"measurement": "sunburn (erythema) response, oedema component at peak of erythema", "setting": "[5]; creams applied after SSUV, 48 h after the first UV exposure, in words", "value": "significant reduction"}]}]}
